Experimental data taken from US20110293559A1, “CATABOLIC AGENTS” (priority 2008, published 2011).
Like-named read-outs stand apart in the source and are kept apart here.

Columns and labels:
MMP13 gene expression = assay: qPCR MMP13 gene expression in cartilage explants; format: cell-based
Procedure: The medium was removed after the nominated time and washed once with DMEM then replaced with DMEM medium containing 50 μg/ml ascorbate, 10 mM HEPES, gentamycin and supplemented with 1× insulin-transferrin-selenium (ITS; Sigma). For qPCR studies the explants were first allowed to equilibriate in serum containing medium for 3 days, then washed 3 times in serum-free DMEM before the treatment as described above. For long term culture following 2 hour cytokine treatment explants were treated immediately following their excision from the joint, then cultured for 4 weeks in serum-free DMEM containing ITS, ascorbate, HEPES and gentamycin. The culture medium was changes 3 times a week.
Quantitative polymerase chain reaction (qPCR) using the fluorescent dye SYBR Green (Eurogentec, Belgium) was used to determine the absolute expression levels of ADAMTS4 and MMP-13 between explants. Real-time PCR reactions were carried out in 25 μl volumes in a 96-well plate (Applied Biosystems™) containing 1× buffer (10×), 3.5 mM MgCl2, 200 μM dNTPs, 0.3 μM of sense and antisense primers, 0.025 U enzyme and 1:66000 SYBR GreenI®. All reactions were made using gPCR™ Core Kit for SYBR Green I® (Eurogentec). At the end of each reaction, the cycle threshold (CT) was manually setup at the level that reflected the best kinetic PCR parameters, and melting curves were acquired and analysed. Absolute values for the gene of interest were calculated from standard curves generated using serially diluted plasmid cloned and sequence verified template (ng DNA) and were normalized to the housekeeping gene 18S rRNA.

[1] = tested on: immature articular cartilage explants; assay: Mechanical push-out test of disc/ring interface; format: cell-based; settings: FIG. 2, 3 weeks in culture, n=4
Description: Six millimetre diameter cartilage explants from immature articular cartilage containing 3 mm diameter inner cores, both created using punch biopsy tools (Steifel), were placed in Dulbecco's modified Eagles medium (DMEM) culture medium containing various concentrations of interleukin-1β or tumour necrosis factor α (TNFα; Peprotech), or, the culture medium without cytokine as a control. The medium was removed after the nominated time and washed once with DMEM then replaced with DMEM medium containing 50 μg/ml ascorbate, 10 mM HEPES, gentamycin and supplemented with 1× insulin-transferrin-selenium (ITS; Sigma). For qPCR studies the explants were first allowed to equilibriate in serum containing medium for 3 days, then washed 3 times in serum-free DMEM before the treatment as described above. […]
Adhesive properties of the disc/ring interface after 3-weeks in culture were assessed using a push-out test (n=4). Thickness of the sample was measured using calipers. […] A computer activated micro-stepper controlled the displacement of the push-out rod (0.05 mm/min), whilst a load cell (100N) coupled to the rod measured the push-out force. The adhesive strength was calculated from the maximum force measured at failure per unit of interfacial area.

cartilage = settings: in vitro, cited from earlier work
[2] = tested on: immature articular cartilage explants; assay: Disc-core cartilage explant integration culture with histology; format: cell-based
Description: Six millimetre diameter cartilage explants from immature articular cartilage containing 3 mm diameter inner cores, both created using punch biopsy tools (Steifel), were placed in Dulbecco's modified Eagles medium (DMEM) culture medium containing various concentrations of interleukin-1β or tumour necrosis factor α (TNFα; Peprotech), or, the culture medium without cytokine as a control. The medium was removed after the nominated time and washed once with DMEM then replaced with DMEM medium containing 50 μg/ml ascorbate, 10 mM HEPES, gentamycin and supplemented with 1× insulin-transferrin-selenium (ITS; Sigma). For qPCR studies the explants were first allowed to equilibriate in serum containing medium for 3 days, then washed 3 times in serum-free DMEM before the treatment as described above. For long term culture following 2 hour cytokine treatment explants were treated immediately following their excision from the joint, then cultured for 4 weeks in serum-free DMEM containing ITS, ascorbate, HEPES and gentamycin. The culture medium was changes 3 times a week.
Four week core and disc cultures were fixed with neutral-buffered formyl-saline and left overnight at 4 C. The explants were then processed for wax embedding. Ten micron sections were cut using a microtome, and sections dewaxed and rehydrated in a descending series of alcohols. Sections were stained with haemotoxylin (1 minute), washed in water and then stained with Safranin-O (2 minutes) washed briefly in water and then dehydrated, dipped in xylene and then mounted in DPX liquid under coverslips.

Row | Molecule | increase in MMP13 gene expression (MMP13 gene expression; 100 μM retinoic acid, 2 hour incubation, P<0.03, n=3 (FIG. 6)) | force to push out the explant from the disc versus untreated explants [1] | cartilage integration (cartilage; 1 pg/ml or 100 pg/ml, 14 days) | cartilage integration (cartilage; 10 pg/ml, incubation of the cartilage for 14 days) | increase in MMP13 gene expression (MMP13 gene expression; 25 ng/ml IL1β, 2 hours, P>0.116, n=3 (FIG. 3)) [fold] | MMP13 gene expression, effect of increasing concentrations (MMP13 gene expression; 12.5-100 ng/ml for 2 hours) | integration between disc and core cartilages ([2]; 10 ng/ml for 24 hours, unsupplemented culture medium, cultured for a further 2 weeks (FIG. 1A)) | chondrocyte migration in the interfacial matrix ([2]; 25 ng/ml IL1β for 2 hours, then 4 weeks culture, high power histology (FIG. 9)) | integration, assessed qualitatively through retention of matrix integrity (safranin-O histology) ([2]; 25 ng/ml IL1β for 2 hours, then 4 weeks serum-free culture with ITS (FIG. 8))
1 | CC1=C(/C=C/C(C)=C/C=C/C(C)=C/C(=O)O)C(C)(C)CCC1 [Retinoic acid, reference compound] | approximately 3 fold | – | – | – | – | – | – | – | –
2 | IL1β: catabolic cytokine, member of the interleukin-1 superfamily | – | almost six times more force | not consistent | enhanced cartilage integration | 1.64 | increase in MMP13 gene expression | enhances integration | presence of migrating chondrocytes within the interfacial matrix | best achieved
